Laboratory results from patent publication US20020177526A1, “Insecticidal seed coating” (priority 1996, published 2002).

How the values were obtained:
[1] = system: corn rootworm larvae; assay: Corn rootworm growth chamber bioassay (16 oz cup); format: in vivo; settings: Iowa scale 1-6
Description: (§1) Hybrid corn seeds with and without an insecticidal coating are planted in Nebraska, Iowa, Minnesota, Wisconsin and Illinois to determine the efficacy of various coated seed treatments in standard tests. All seeds contain a Captan pretreatment whether or not a coating is applied. Additionally, an overcoat layer is applied to all coated seed which comprises the coating described in Example 2. Banded granular insecticides are applied at the manufactures label rates using granular insecticide applicators. Plot size for each treatment is two ten foot rows spaced 30 inches apart with four replications of each treatment at each location. Non-diaposing 1st instar Western Corn Rootworm larvae are side dressed on both sides of the corn plants in the row at a rate of 800 eggs per foot of row. Application of the insect larvae is made when the corn seedlings are approximately at the two leaf stage. The placement of the larvae is approximately two inches to the side of the corn plants and two inches below the soil surface. Plots are maintained with normal cultural practices until the corn plants reach the flowering stage. At late brown silk stage, 10 sequential roots from each plot are obtained. The corn stalks are cut at approximately 12 inches above the soil line. Each corn root is washed and after washing the roots are rated on a scale of 1-6 using the Iowa Root Rating Method developed at Iowa State University (Hills and Peters, 1971) and used commonly throughout the corn belt. In the rating, 1=no damage or only a few minor feeding scars; 2=feeding scars evident but no roots eaten off to within 1½ inch of the plant; 3=several roots eaten off to within 1½ inch of the plant but never the equivalent of an entire node of roots is destroyed; 4=one root node completely destroyed; 5=two root nodes completely destroyed and 6=three or more root nodes destroyed. A destroyed root is defined as a root that has been pruned to within 1½ inch of the base. […] In addition, a growth chamber and a greenhouse bioassay was used to determine the effect of insecticidal seed coating on corn rootworm control. For growth chamber assay, corn seed was planted in a 16 oz cup with garden Jiffymix, and allowed to grow for two weeks. Twenty neonate corn rootworm larvae are placed in the Jiffymix near corn roots and allowed to feed for approximately 2 weeks. The larvae are then screened out and the % mortality of the larvae is determined. Each corn root is washed and after washing the roots are rated on a scale of 1-6 using the Iowa Root Rating Method developed at Iowa State University (Hills and Peters, 1971). Some of the results are indicated below in Table 3. The greenhouse assay use 2 gallon pot with 20 mesh corn field soil. Forty corn rootworm larvae are placed in each pot when corn plant was at 4 to 5-leaf stage, and allowed to feed for 2 to 3 weeks. Each corn root is washed and after washing the roots are rated on a scale of 1-6 using the Iowa Root Rating Method developed at Iowa State University (Hills and Peters, 1971). Some of the results are indicated below in Table 3.
(§2) Maize seed is treated as described in Examples 1 and 2. A combination of methyl cellulose and polyvinyl alcohol is used as a binder and Celite 266 is used as filler for insecticide solution, which contains the compound of formula II as the insecticide. Bioassay methods are as described in Example 4. Root rating was based on the Iowa State 1-6 scale.

[2] = system: corn rootworm larvae; assay: Corn rootworm greenhouse bioassay (2 gal pot); format: in vivo; settings: Iowa scale 1-6
Description: as §1, §2

Structure (SMILES): Cc1c(F)c(F)c(COC(=O)[C@@H]2[C@H](/C=C(\Cl)C(F)(F)F)C2(C)C)c(F)c1F [Tefluthrin 50%, tefluthrin, reference compound]
- Growth Chamber (16 oz cup) Root Rating ([1]; 1.0 mg/seed): 2.30
- Greenhouse (2 gal pot) Root Rating ([2]; 1.0 mg/seed): 3.52

Structure (SMILES): CN1COCN(Cc2cnc(Cl)s2)/C1=N/[N+](=O)[O-] [Formula II]
- Growth Chamber (16 oz cup) Root Rating ([1]; 0.01 mg/seed (combination: plus Raze 0.13 mg/seed)): 5.30
- Growth Chamber (16 oz cup) Root Rating ([1]; 0.03 mg/seed): 4.30
- Growth Chamber (16 oz cup) Root Rating ([1]; 0.3 mg/seed (combination: plus Raze 0.13 mg/seed)): 2.70
- Growth Chamber (16 oz cup) Root Rating ([1]; 0.6 mg/seed): 2.10
- Growth Chamber (16 oz cup) Root Rating ([1]; 0.8 mg/seed): 2.30
- Growth Chamber (16 oz cup) Root Rating ([1]; 1.0 mg/seed): 2.10
- Greenhouse (2 gal pot) Root Rating ([2]; 0.6 mg/seed): 2.73
- Greenhouse (2 gal pot) Root Rating ([2]; 1.2 mg/seed): 3.08
- Greenhouse (2 gal pot) Root Rating ([2]; 1.5 mg/seed): 2.96
- Greenhouse (2 gal pot) Root Rating ([2]; 2.0 mg/seed): 2.90
